The structures appear in SMILES notation. pIC50: −log10 of the molar value.

This passage reports IC50 results from ChEMBL document CHEMBL5036321, “Sinularamides A-G, Terpenoid-Derived Spermidine and Spermine Conjugates with Casitas B-Lineage Lymphoma Proto-Oncogene B (Cbl-b) Inhibitory Activities from a Sinularia sp. Soft Coral” (J Nat Prod, 2021).

This assay addresses E3 ubiquitin-protein ligase CBL-B (Homo sapiens, UniProt Q13191). As to the kind of experiment: Inhibition of Cbl-b (unknown origin) assessed as inhibition of Cbl-b dependent auto-ubiquitination in presence of ATP measured after 13 hrs by fluorescence microplate reader assay.

Chain of E3 ubiquitin-protein ligase CBL-B (Q13191 whole entry): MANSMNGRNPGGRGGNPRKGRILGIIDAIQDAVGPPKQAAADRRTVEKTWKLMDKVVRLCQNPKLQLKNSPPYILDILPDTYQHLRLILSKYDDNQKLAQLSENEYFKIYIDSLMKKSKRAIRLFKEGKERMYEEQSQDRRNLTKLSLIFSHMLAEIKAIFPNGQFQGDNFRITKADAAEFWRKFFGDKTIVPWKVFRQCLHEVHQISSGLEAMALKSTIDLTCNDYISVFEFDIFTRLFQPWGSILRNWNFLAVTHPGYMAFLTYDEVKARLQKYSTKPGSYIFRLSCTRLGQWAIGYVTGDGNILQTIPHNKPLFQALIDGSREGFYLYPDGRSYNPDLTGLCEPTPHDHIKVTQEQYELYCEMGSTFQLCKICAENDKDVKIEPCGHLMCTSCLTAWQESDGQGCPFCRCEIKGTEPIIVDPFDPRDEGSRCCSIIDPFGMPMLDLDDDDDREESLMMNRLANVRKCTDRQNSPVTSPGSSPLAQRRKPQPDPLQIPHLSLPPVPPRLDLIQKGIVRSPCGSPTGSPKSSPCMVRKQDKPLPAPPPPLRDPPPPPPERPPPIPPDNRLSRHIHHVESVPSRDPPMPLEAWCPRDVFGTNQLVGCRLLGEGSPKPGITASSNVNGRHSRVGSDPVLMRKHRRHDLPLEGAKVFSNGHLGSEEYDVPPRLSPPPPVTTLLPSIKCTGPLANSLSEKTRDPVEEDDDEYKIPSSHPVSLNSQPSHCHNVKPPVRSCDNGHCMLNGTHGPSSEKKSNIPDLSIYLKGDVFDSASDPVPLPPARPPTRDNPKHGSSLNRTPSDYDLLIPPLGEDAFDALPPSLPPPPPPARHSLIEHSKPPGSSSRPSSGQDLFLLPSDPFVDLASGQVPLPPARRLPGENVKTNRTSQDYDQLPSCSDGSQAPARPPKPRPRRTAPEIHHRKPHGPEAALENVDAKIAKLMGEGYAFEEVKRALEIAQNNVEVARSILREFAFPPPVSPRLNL

One may read the pIC50 as the negative decadic logarithm of the IC50, by convention in mol/L. On to `CC(C)=CCC/C(C)=C/CC/C(C)=C/CC/C(C)=C/C(=O)NCCC[N+](C)(C)CCCC[N+](C)(C)CCCNC(=O)/C=C(\C)CC/C=C(\C)CC/C=C(\C)CCC=C(C)C`, for which the pIC50 was 5.19.
